Where two headings read alike, the source gives them in different places.
Target: T1, Human Recombinant Matriptase 2 (Homo sapiens, UniProt Q8IU80)
T1 construct: made in house
T1 sequence (Q8IU80 1-811): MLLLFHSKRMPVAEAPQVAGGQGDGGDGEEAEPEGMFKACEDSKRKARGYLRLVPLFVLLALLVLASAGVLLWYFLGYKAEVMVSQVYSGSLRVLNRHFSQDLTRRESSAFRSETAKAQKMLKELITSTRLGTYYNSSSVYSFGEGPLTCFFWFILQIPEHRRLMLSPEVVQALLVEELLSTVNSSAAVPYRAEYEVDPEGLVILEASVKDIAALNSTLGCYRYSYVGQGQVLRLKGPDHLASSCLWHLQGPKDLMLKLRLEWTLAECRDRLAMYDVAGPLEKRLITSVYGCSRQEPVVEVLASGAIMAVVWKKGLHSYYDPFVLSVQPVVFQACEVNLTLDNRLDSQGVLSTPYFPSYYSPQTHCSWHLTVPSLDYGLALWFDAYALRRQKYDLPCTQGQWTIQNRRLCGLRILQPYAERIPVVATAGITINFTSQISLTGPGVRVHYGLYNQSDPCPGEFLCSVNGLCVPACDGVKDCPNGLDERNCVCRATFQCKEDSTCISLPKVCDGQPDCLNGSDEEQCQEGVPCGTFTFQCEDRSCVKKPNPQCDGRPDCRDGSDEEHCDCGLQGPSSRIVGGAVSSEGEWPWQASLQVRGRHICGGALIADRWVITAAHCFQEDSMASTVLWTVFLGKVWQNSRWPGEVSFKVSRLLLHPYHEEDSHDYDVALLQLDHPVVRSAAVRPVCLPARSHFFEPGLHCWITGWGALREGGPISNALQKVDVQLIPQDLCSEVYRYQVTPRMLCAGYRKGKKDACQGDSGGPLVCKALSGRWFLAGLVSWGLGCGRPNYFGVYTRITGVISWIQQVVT
Test: Matriptase 2 inhibition, fluorescence based assay (Method I)
Type: biochemical
Outline: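 Fluorogenic readout (Ex 360/Em 480 nm) taken 60 min after adding 62 μM Boc-Gln-Ala-Arg-AMC, following 30-min enzyme–compound preincubation at 25 °C. Conditions: 3.5 nM in-house enzyme, pH 7.5 Tris/NaCl/gelatin buffer, 1% DMSO; percent inhibition versus concentration fitted by variable-slope sigmoidal regression.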

[1] = Table A, Ki of Matriptase-2 given as class symbols, read-out: Mat-2 Ki
[2] = Table B, Human Recombinant Matriptase 2, 3.5 nM enzyme, 62 μM substrate, 30 mins preincubation, read-out: Mean Ki
[3] = Table A, Ki of Matriptase-2, read-out: Mat-2 Ki

| SMILES | Ki [1] | Ki [3] | also measured |
| --- | --- | --- | --- |
| NCc1ccc2cc(-c3nnn[nH]3)n(Cc3cc(NS(=O)(=O)CC[C@@H]4CCCN4)cc4ccccc34)c2c1 [Compound 399, (S)—N-(4-((6-(aminomethyl)-2-(1H-tetrazol-5-yl)-1H-indol-1-yl)methyl)naphthalen-2-yl)-2-(pyrrolidin-2-yl) ethane-1-sulfonamide] | – | – | Ki (Table A, Ki of Matriptase-2, class symbols, read-out: Mat-2 Ki): 100 to 500 nM |
| NCc1ccc2cc(C(=O)O)n(Cc3cc(NC(=O)N4CC5CCCC5C4)cc4ccccc34)c2n1 (stereo not drawn) [Compound 297, 6-(aminomethyl)-1-{[3-({octahydrocyclopenta-[c]pyrrole-2-carbonyl}-amino)naphthalen-1-yl]-methyl}-1H-pyrrolo[2,3-b]pyridine-2-carboxylic acid] | 500 to 3000 nM | – | – |
| NCc1ccc2cc(C(=O)OCC3CNC(=O)C3)n(Cc3cc(NS(=O)(=O)Cc4ccsc4)cc4ccccc34)c2n1 (stereo not drawn) [Compound 2.13] | – | – | Ki [2]: ≤ 100 nM |
| CC[C@H]1CCCCN1C(=O)Nc1cc(Cn2c(C(=O)O)cc3ccc(CN)nc32)c2ccccc2c1 (racemic) [Compound 306, rac-6-(aminomethyl)-1-[(3-{[(2R)-2-ethylpiper-idine-1-carbonyl]amino}-naphthalen-1-yl)methyl]-1H-pyrrolo[2,3-b]pyr-idine-2-carboxylic acid] | 500 to 3000 nM | – | – |
| CN(C)CCOC(=O)c1cc2ccc(CN)nc2n1Cc1cc(NS(=O)(=O)CC[C@@H]2CCCN2)cc2ccccc12 [Compound 284, 2-(dimethylamino)ethyl 6-(aminomethyl)-1-[(3-{2-[(2S)-pyrrolidin-2-yl]ethanesulfonamido}-naphthalen-1-yl)methyl]-1H-pyrrolo[2,3-b]pyr-idine-2-carboxylate] | 500 to 3000 nM | – | – |
| CN(C)CCOC(=O)c1cc2ccc(CN)nc2n1Cc1cc(NS(=O)(=O)Cc2cccs2)cc2ccccc12 [Compound 148, 2-(dimethylamino)ethyl 6-(aminomethyl)-1-({3-[(thiophen-2-yl)methane-sulfonamido]naphthalen-1-yl}methyl)-1H-pyr-rolo[2,3-b]pyridine-2-carboxylate] | – | ≤ 100 nM | – |
| CN1CCC(CNC(=O)c2cc3ccc(CN)nc3n2Cc2cc(NS(=O)(=O)Cc3ccsc3)cc3ccccc23)CC1 [Compound 6, 6-(aminomethyl)-N-((1-methylpiperidin-4-yl)methyl)-1-((3-((thiophen-3-ylmethyl)sulfonamido)naphthalen-1-yl)methyl)-1H-pyrrolo[2,3-b]pyridine-2-carboxamide] | – | ≤ 100 nM | – |
| Cc1cccc(C)c1CS(=O)(=O)Nc1cc(Cn2c(C(=O)OCCC3CCN(C)CC3)cc3ccc(CN)nc32)c2ccccc2c1 [Compound 185, 2-(1-methylpiperidin-4-yl)ethyl 6-(aminometh-yl)-1-({3-[(2,6-dimethyl-phenyl)methanesulfon-amido]naphthalen-1-yl}-methyl)-1H-pyrrolo[2,3-b]pyridine-2-carboxylate] | – | ≤ 100 nM | – |
| CN1CCC(COC(=O)c2cc3ccc(CN)nc3n2Cc2cccc(NS(=O)(=O)Cc3ccccc3)c2)CC1 [Compound 2.48] | – | – | Ki [2]: 100 to 500 nM |
| CN1CCC[C@H]1CCS(=O)(=O)Nc1cc(Cn2c(C(=O)O)cc3ccc(CN)nc32)c2ccccc2c1 [Compound 235, 6-(aminomethyl)-1-[(3-{2-[(2S)-1-methylpyr-rolidin-2-yl]ethanesul-fonamido}naphthalen-1-yl)methyl]-1H-pyrrolo-[2,3-b]pyridine-2-car-boxylic acid] | 100 to 500 nM | – | – |
| COCCN1CCC[C@H](COC(=O)c2cc3ccc(CN)nc3n2Cc2cc(NS(=O)(=O)Cc3ccsc3)cc3ccccc23)C1 (racemic) [Compound 166, [1-(2-methoxyethyl)-piperidin-3-yl]methyl 6-(aminomethyl)-1-({3-[(thiophen-3-yl)methane-sulfonamido]naphthalen-1-yl}methyl)-1H-pyr-rolo[2,3-b]pyridine-2-carboxylate] | – | ≤ 100 nM | – |
| CN1CCC(COC(=O)c2cc3ccc(CN)nc3n2Cc2cc(NS(=O)(=O)CC3CCNCC3)cc3ccccc23)CC1 [Compound 249, (1-methylpiperidin-4-yl)methyl 6-(amino-methyl)-1-({3-{(piperi-din-4-yl)methanesul-fonamido]naphthalen-1-yl}methyl)-1H-pyr-rolo[2,3-b]pyridine-2-carboxylate] | 500 to 3000 nM | – | – |

Further lines, with some results ahead:

| Ki [1] | Ki [3] | SMILES | also measured |
| --- | --- | --- | --- |
| – | 500 to 3000 nM | NCc1ccc2cc(C(=O)OCC34CC(F)(C3)C4)n(Cc3cc(NS(=O)(=O)Cc4ccccc4)cc4ccccc34)c2n1 [Compound 117, {3-fluorobicyclo[1.1.1]-pentan-1-yl}methyl 6-(aminomethyl)-1-{[3-(phenylmethanesulfon-amido)naphthalen-1-yl]-methyl}-1H-pyrrolo[2,3-b]pyridine-2-carboxylate] | – |
| – | ≤ 100 nM | NCc1ccc2cc(C(=O)OCCN3CCOCC3)n(Cc3cc(NS(=O)(=O)Cc4ccccc4)cc4ccccc34)c2n1 [Compound 50, 2-(morpholin-4-yl)ethyl 6-(aminomethyl)-1-{[3-(phenylmethanesulfon-amido)naphthalen-1-yl]-methyl}-1H-pyrrolo[2,3-b]pyridine-2-carboxylate] | – |
| – | ≤ 100 nM | C[C@H](OC(=O)c1cc2ccc(CN)nc2n1Cc1cc(NS(=O)(=O)Cc2ccccc2)cc2ccccc12)C1CCN(C)CC1 (racemic) [Compound 48, 1-(1-methylpiperidin-4-ylethyl 6-(aminomethyl)-1-{[3-(phenylmethane-sulfonamido)naphthalen-1-yl]methyl}-1H-pyr-rolo[2,3-b]pyridine-2-carboxylate] | – |
| – | 100 to 500 nM | NCc1ccc2cc(C(=O)OCc3cncn3CC(F)(F)F)n(Cc3cc(NS(=O)(=O)Cc4ccccc4)cc4ccccc34)c2n1 [Compound 103, [1-(2,2,2-trifluoroethyl)-1H-imidazol-5-yl]methyl 6-(aminomethyl)-1-{[3-(phenylmethanesulfon-amido)naphthalen-1-yl]-methyl}-1H-pyrrolo[2,3-b]pyridine-2-carboxylate] | – |
| – | ≤ 100 nM | CN(C)CCOC(=O)c1cc2ccc(CN)nc2n1Cc1cc(NS(=O)(=O)Cc2ccccc2)cc2ccccc12 [Compound 49, 2-(dimethylamino)ethyl 6-(aminomethyl)-1-{[3-(phenylmethanesulfon-amido)naphthalen-1-yl]-methyl}-1H-pyrrolo[2,3-b]pyridine-2-carboxylate] | – |
| 100 to 500 nM | – | CN1CCC(COC(=O)c2cc3ccc(CN)nc3n2Cc2cc(NS(=O)(=O)Cc3cccc(C#N)c3)cc3ccccc23)CC1 [Compound 221, (1-methylpiperidin-4-yl)methyl 6-(aminometh-yl)-1-({3-[(3-cyanophen-yl)methanesulfonamido]-naphthalen-1-yl}methyl)-1H-pyrrolo[2,3-b]pyr-idine-2-carboxylate] | – |
| ≤ 100 nM | – | NCc1ccc2cc(-c3ccn[nH]3)n(Cc3cc(NS(=O)(=O)Cc4ccccc4)cc4ccccc34)c2n1 [Compound 351] | – |
| – | 100 to 500 nM | CN1CCC(CCS(=O)(=O)NC(=O)c2cc3ccc(CN)nc3n2Cc2cc(NS(=O)(=O)Cc3ccccc3)cc3ccccc23)CC1 [Compound 83, 6-(aminomethyl)-N-[2-(1-methylpiperidin-4-yl)-ethanesulfonyl]-1-{[3-(phenylmethanesulfon-amido)naphthalen-1-yl]-methyl}-1H-pyrrolo[2,3-b]pyridine-2-carboxamide] | – |
| 500 to 3000 nM | – | NCc1ccc2cc(C(=O)O)n(Cc3cc(CS(=O)(=O)Cc4ccccc4)cc4ccccc34)c2n1 [Compound 252, 6-(aminomethyl)-1-{[3-(phenylmethanesulfon-ylmethyl)naphthalen-1-yl]methyl}-1H-pyrrolo-[2,3-b]pyridine-2-car-boxylic acid] | – |
| – | ≤ 100 nM | CC(C)(C)n1ccnc1COC(=O)c1cc2ccc(CN)nc2n1Cc1cc(NS(=O)(=O)Cc2ccccc2)cc2ccccc12 [Compound 46, (1-tert-butyl-1H-imid-azol-2-yl)methyl 6-(aminomethyl)-1-{[3-(phenylmethanesulfon-amido)naphthalen-1-yl]-methyl}-1H-pyrrolo[2,3-b]pyridine-2-carboxylate] | – |
| – | ≤ 100 nM | NCc1ccc2cc(C(=O)OCCN3CCCC3)n(Cc3cc(NS(=O)(=O)Cc4ccccc4)cc4ccccc34)c2n1 [Compound 69, 2-(pyrrolidin-1-yl)ethyl 6-(aminomethyl)-1-{[3-(phenylmethanesulfon-amido)naphthalen-1-yl]-methyl}-1H-pyrrolo[2,3-b]pyridine-2-carboxylate] | – |
| ≤ 100 nM | – | Cn1ccnc1COC(=O)c1cc2ccc(CN)cc2n1Cc1cc(NS(=O)(=O)Cc2ccccc2)cc2ccccc12 [Compound 383, (1-methyl-1H-imidazol-2-yl)methyl 6-(amino-methyl)-1-{[3-(phenyl-methanesulfonamido)-naphthalen-1-yl]meth-yl}-1H-indole-2-carbox-ylate] | – |

— patent US20240400553A1, “AMINE BASED MATRIPTASE 2 INHIBITORS AND USES THEREOF” (Disc Medicine, Inc., priority 2023, published 2024)
